Assay: gradient 5% acetonitrile 3 min, to 50% in 2 min, to 85% in 15 min, held 3 min, 100 µL/min
Details: column: Zorbax Extend-C18 2.1 x 50 mm; eluents: water / acetonitrile, 0.1% formic acid
Summary of the method: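 Retention time was recorded from adduct peaks, which were picked computationally and each inspected manually. Pure standards ran in mixtures of ~100 molecules on HPLC coupled to a quadrupole time-of-flight mass spectrometer, in positive and negative ionization mode, through a Zorbax Extend-C18 column (2.1 × 50 mm, 1.8 μm) at 100 μL/min. Eluents were water and acetonitrile, each with 0.1% formic acid.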

RP-LC retention time	Compound
806 s	COCCn1c(C2CCN(S(=O)(=O)c3ccc(Cl)cc3)C2)nc2cccnc21 (configuration not stated)
960 s	COc1cccc(NC(=O)C2CCN(S(=O)(=O)c3ccc4c(c3)sc(=O)n4C(C)C)CC2)c1
1330 s	CC(C)(C)c1noc(-c2ccc(-n3cnc(C(=O)NCc4ccc(F)cc4)c3)nc2)n1
612 s	Cc1cc(NCCCCCCCNc2cc(C)nc3cc(N)ccc23)c2ccc(N)cc2n1
672 s	Cc1ccnc(N2CCC(C(=O)NC(C)c3ccc4c(c3)OCCO4)CC2)n1 (configuration not stated)
767 s	Cc1ccc(N(C)C(=O)n2cnc3ccccc32)cc1
1150 s	CCOc1ccc(CC(=O)Nc2ccc(-c3nc(-c4ccccc4)co3)cc2)cc1OCC
671 s	O=C1CCCC(=O)N1CCS(=O)(=O)N1CCC(c2nnc(-c3ccco3)s2)CC1
669 s	CCOC(=O)N1CCN(S(=O)(=O)CCNC(=O)c2ccccc2)CC1
851 s	Cc1ccc(CN2C(=O)CN(S(C)(=O)=O)CC2(C)C(=O)NCc2ccccc2)cc1 (configuration not stated)
885 s	CCOC(=O)c1c(S(=O)(=O)N2CCC(C(=O)Nc3ccc(F)cc3C)CC2)c(C)n(CC)c1C
831 s	O=C(C1CC1)N1CCC(COCc2ccccc2)CC1
892 s	CC(C)(C)NC(=O)N1CCOc2ccccc21
735 s	COc1ccc(NC(=O)CSc2nccc(N3CCN(c4cccc(OC)c4)CC3)n2)cc1
1120 s	CCCCCCCCCCNCCSSCc1ccc(Cl)cc1
712 s	Cc1ccc(CNS(=O)(=O)c2cc(-c3[nH]ncc3C(=O)N(C)C)oc2C)cc1
648 s	CCCNC(=O)CCNc1c(-c2ccc(F)cc2)nc2cnccn12
849 s	COc1ccc(NC(=O)Cn2c(Nc3cc(C)cc(C)c3)nc(C)cc2=O)cc1Cl
743 s	CCS(=O)(=O)Nc1ccc2nc(N3CCN(c4cccc(C)c4C)CC3)cc(C(=O)O)c2c1
952 s	Cc1ccc(CNC(=O)c2cccc(C3CCCN(C(=O)NC(C)C)C3)c2)cc1C (configuration not stated)
605 s	Cc1cnc(C2CC2)n1CCNS(=O)(=O)c1cccc(F)c1
635 s	Cc1cccc(-c2[nH]ncc2-c2ccc3ncccc3n2)n1

RP-LC retention time	Compound
753 s	COC(=O)c1ccc2c(=O)n(-c3ccc(Cl)cc3)c(N3CCN(c4ccccn4)CC3)nc2c1
813 s	COc1cc(OC)c(NS(=O)(=O)c2cc(-c3c(C)noc3NC(C)=O)ccc2C)cc1Cl
660 s	O=C(CSc1ccc(N2CCCC(C(=O)NC3CC3)C2)nn1)Nc1cc(F)ccc1Cl (configuration not stated)
764 s	O=C(Nc1ccc2c(c1)OCCO2)C1CC(=O)N(CCc2c[nH]c3ccc(F)cc23)C1 (configuration not stated)
594 s	O=C(Cn1nc(C(=O)N2CCOCC2)c2ccccc21)N1CCN(c2ccccn2)CC1
715 s	Cc1nn(C)c2c(=O)n(C(C)C(=O)NCc3ccc4c(c3)OCO4)ccc12 (configuration not stated)
1100 s	Cc1nc(OCC(=O)N2CCc3ccccc32)c2c(-c3ccccc3)noc2n1
1100 s	Cc1ccc(-n2nc(C)c3c(=O)n(CC(=O)N4CCN(c5cc(Cl)ccc5C)CC4)ccc32)cc1
630 s	CN(C)C(=O)c1cc2cnc(Nc3ccc(N4CCNCC4)cn3)nc2n1C1CCCC1
588 s	COc1cccc2c1OC1(C)CC2NC(=O)N1c1cccc(C(=O)N2CCN(c3ccccn3)CC2)c1 (configuration not stated)
577 s	Cc1ccc(C(=O)N2CC[C@H](CO)[C@H](N(C)C)C2)s1
887 s	O=C([C@@H]1C[C@H](F)CN1S(=O)(=O)c1ccccc1F)N1CCc2ccccc2C1
804 s	CCC(C)NC(=O)c1cc2c(s1)CCN(C(=O)c1ccc(F)cc1)C2 (configuration not stated)
648 s	CCCNc1cc(N2CCC(CCC(=O)Nc3ccc(OC)cc3OC)CC2)ncn1
612 s	O=C(O)c1nnn(-c2ccc(F)cc2)c1-c1ccncc1
708 s	CSc1ccc(-c2nc3cnccn3c2Nc2ccc(C(=O)N3CCOCC3)cc2)cc1
987 s	CCc1ccc(S(=O)(=O)N2CCC(C(=O)NCc3csc(-c4cccs4)n3)CC2)cc1
742 s	Cn1c(=O)c2ccnn2c2ccc(C(=O)NC3CCCCC3)cc21
878 s	Cc1cccc(N2CCN(C(=O)C3CCN(Cc4cn(C)c5ccc(Cl)cc45)CC3)CC2)c1C
943 s	O=C(Nc1ccc(Br)cc1F)C1CCCN(C(=O)c2ccccc2F)C1 (configuration not stated)
815 s	O=S(=O)(c1cccnc1)N1CC(F)(F)C[C@H]1c1nc(C2CC2)no1
608 s	CC(C)CN1CCn2cc(C(=O)NCc3cc(F)ccc3F)nc2C1

RP-LC retention time	Compound
709 s	CCn1cc(-c2ccc(Cl)cc2)cc1C(=O)NCCCN1CCOCC1
700 s	CC(=O)NS(=O)(=O)c1ccc2sc(C)nc2c1
591 s	COC(=O)c1ccc(NC(=O)N2CCc3nc[nH]c3C2)cc1
564 s	Cc1cc(N2CCN(C)CC2)nc2ccc(NC(=O)Nc3ccccc3)cc12
570 s	CCCCNC(=O)c1ccc2nc(CCc3ccc(NC(=O)CC)cc3)[nH]c2c1
569 s	O=C(NCCN1CCCCCC1)C1CCN(c2cnc(N3CCCC3)nc2)CC1
912 s	CCOc1ccc(NC(=O)Cn2cccc2-c2nnc(C3CCC3)o2)cc1
623 s	CC1CN(C(=O)CCC(=O)N2CCN(c3ccccn3)CC2)c2ccccc2O1 (configuration not stated)
775 s	COc1ccc(-c2cn3c(CC(=O)N4CCCc5ccccc54)csc3n2)cc1OC
749 s	CN(C)c1cccc(C(=O)Nc2cnn(-c3ncc(N4CCCC4)cn3)c2)c1
613 s	CCc1nc2cc(N3CCC(C(=O)NCCN4CCCCCC4)CC3)cnc2nc1CC
578 s	CC(C)NC(=O)C1Cn2cccc2C(=O)N1 (configuration not stated)
771 s	Cc1nn(C(C)C(=O)NCCCOC(C)C)c(=O)c2nn(-c3ccccc3)c(C)c12 (configuration not stated)
805 s	CCCc1ccc(S(=O)(=O)N2CCN(c3cnn4c(C)nnc4c3)CC2)cc1
982 s	CCN(CC)S(=O)(=O)c1ccc(NC(=O)c2oc3c(c2C)C(=O)CC(C)(C)C3)cc1
697 s	CCc1ccc(C(C)NC(=O)C2CCN(c3cncnc3N3CCOCC3)CC2)cc1 (configuration not stated)
676 s	O=C(Nc1sc2c(c1C(c1cccnc1)N1CCN(c3ccccn3)CC1)CCCC2)c1ccco1 (configuration not stated)
718 s	COc1cc([C@@H]2c3cc4c(cc3[C@H](O)[C@@H](CO)[C@@H]2C(=O)NCc2cc(F)ccc2F)OCO4)cc(OC)c1OC
960 s	CCOC(=O)c1ccc(NC2=NS(=O)(=O)C(c3ccccc3)=C2C)cc1
676 s	Cc1c(-c2noc(C(=O)NCCN(C)C)n2)oc2c(C)cccc12
1010 s	Cc1ccc(F)c(NC(=O)c2nc(C)oc2C)c1
954 s	Cc1ccc(S(=O)(=O)N2C[C@@H](F)C[C@H]2C(=O)N2CCc3ccccc3C2)cc1F

RP-LC retention time	Compound
666 s	CCOC(=O)c1c(C)[nH]c(C)c1S(=O)(=O)N1CCC(C(=O)Nc2ccc(NC(C)=O)cc2)CC1
690 s	CC(=O)Nc1ccc2c(c1)CN(C(=O)c1cccc(Cl)c1)C(C(=O)N1CCCC1)C2 (configuration not stated)
601 s	COc1ccc(-c2noc(Cn3ccnc3)n2)cc1
1090 s	Cc1ccc(-c2nc(-c3ccc(S(=O)(=O)N4CCC(C(=O)N5CCCC5)CC4)cc3)no2)cc1
659 s	O=C1COc2cc(S(=O)(=O)N3CCC(C(=O)N4CCOCC4)CC3)c(Cl)cc2N1
647 s	CC(C)NCc1ccc(-c2ccc(F)cc2)o1
886 s	CCCn1cc(CCNC(=O)Nc2ccc(C)cc2Cl)c2cccnc21
604 s	Cn1cnc2cc(CNC(=O)CCc3ccccc3)ccc21
1130 s	O=S(=O)(c1ccc2c(c1)-c1oncc1CO2)N1CCN(C(c2ccccc2)c2ccccc2)CC1
1080 s	CCOC(=O)c1[nH]c(C)c(C(=O)C(C)N(CC(C)C)C(=O)c2ccc(Cl)cc2)c1C (configuration not stated)
954 s	O=C(Nc1cccc(OCc2nnc(-c3ccccc3)o2)c1)c1ccccn1
570 s	CN(CCCNC(=O)C1CCCN(c2ccc(N3CCOCC3)nn2)C1)c1ccccc1 (configuration not stated)
609 s	c1ccc(-c2nc(CC3CCCNC3)no2)cc1 (configuration not stated)
602 s	CCN1CCN(CCNC(=O)c2cc3n(n2)CCCN(Cc2cccc(C)c2)C3=O)CC1
1080 s	Cn1cccc1CN(C(=O)CC(c1ccccc1)c1ccccc1)C1CC1
1220 s	Cc1ccc(C2Cn3nnc(-c4nc(-c5ccsc5)no4)c3CO2)c(C)c1 (configuration not stated)
590 s	Cc1cc(=O)n(CC(=O)Nc2ccccc2C)c(N)n1
935 s	Cn1nc(C(=O)NC2CCCN(c3cc(-c4ccc(Cl)cc4)[nH]n3)C2)c2ccccc21 (configuration not stated)
1280 s	CCCCn1nnc(NCc2ccc(-c3ccc(Cl)cc3Cl)o2)n1

Compound	RP-LC retention time
Cc1ccc(-c2nnc(N3CCC(C(=O)N4CCC5(CC4)OCCO5)CC3)o2)cc1	755 s
COc1ccc2c(c1)C1(CCN(S(=O)(=O)c3cccc(C#N)c3)C1)C(=O)N2C (configuration not stated)	875 s

Source: the METLIN SMRT retention time set (Domingo-Almenara et al. 2019)
